Data set [1] deals with SW1990. As to the kind of experiment: Induction of apoptosis in human SW1990 cells assessed as early apoptotic cells at 4 uM measured after 4 days by Annexin V-FITC and propidium iodide staining based flow cytometry (reference value: 1.62%). As to conditions: time 4 day. Type of data set: functional. A general note: A flow cytometer gives signals particle by particle.
Data set [2] in a line: Toxicity in nude mouse xenografted with human SW1990 cells assessed as lung damage at 15 mg/kg, ip administered for 28 days by H and E staining based fluorescence microscopic analysis. As to conditions: in vivo, 672 h, time 28 day. In kind it is organism-based. Background: A xenograft is tissue or cells of one species grown in another, often human tumour cells in immunodeficient mice.

Data set [3] can be described thus: Toxicity in nude mouse xenografted with human SW1990 cells assessed as kidney damage at 15 mg/kg, ip administered for 28 days in presence of 45 mg/kg Olaparib by H and E staining based fluorescence microscopic analysis. Type of data set: organism-based. As to conditions: in vivo, 672 h, time 28 day.
Data set [4] has as its system SW1990. The experiment in a line: Induction of cell cycle arrest in human SW1990 cells assessed as accumulation of cells at S phase at 1 uM incubated for 4 days in presence of 3 uM Olaparib by propidium iodide staining based flow cytometry (reference value: 29.32%). In kind it is functional. As to conditions: time 4 day.
Data set [5] has as its system SW1990. The experiment in a line: Effect on FOXM1 gene expression in human SW1990 cells at 4 uM by Q-PCR analysis. Type of data set: functional, cell-based.
The test system of data set [6] is SW1990. As to the kind of experiment: Effect on CDK1 gene expression in human SW1990 cells at 1 uM in presence of Olaparib by Q-PCR analysis. In kind it is functional, cell-based.
Data set [7] in a line: Toxicity in nude mouse xenografted with human SW1990 cells assessed as heart damage at 30 mg/kg, ip administered for 28 days by H and E staining based fluorescence microscopic analysis. As to conditions: in vivo, 672 h, time 28 day. In kind it is organism-based.
Data set [8] is described as follows: Toxicity in nude mouse xenografted with human SW1990 cells assessed as lung damage at 30 mg/kg, ip administered for 28 days by H and E staining based fluorescence microscopic analysis. In kind it is organism-based. Conditions: in vivo, 672 h, time 28 day.
Data set [9] relates to SW1990. As to the kind of experiment: Downregulation of PARP1 expression in human SW1990 cells at 2 uM measured after 4 days by Western blot analysis. Type of data set: functional, cell-based. Conditions: time 4.0 day.
The subject of data set [10] is SW1990. As to the kind of experiment: Induction of apoptosis in human SW1990 cells assessed as early apoptotic cells at 1 uM measured after 4 days by Annexin V-FITC and propidium iodide staining based flow cytometry (reference value: 1.62%). In kind it is functional. Conditions: time 4 day.
Data set [11] has as its system SW1990. The experiment in a line: Induction of apoptosis in human SW1990 cells assessed as early apoptotic cells at 2 uM measured after 4 days by Annexin V-FITC and propidium iodide staining based flow cytometry (reference value: 1.62%). Type of data set: functional. As to conditions: time 4 day.
In data set [12] the test system is SW1990. The experiment in a line: Induction of cell cycle arrest in human SW1990 cells assessed as accumulation of cells at S phase at 1 uM incubated for 4 days by propidium iodide staining based flow cytometry (reference value: 29.32%). In kind it is functional. Conditions: time 4 day.
Data set [13] concerns SW1990. The experiment in a line: Induction of cell cycle arrest in human SW1990 cells assessed as accumulation of cells at G2/M phase at 2 uM incubated for 4 days by propidium iodide staining based flow cytometry (reference value: 5.89%). Type of data set: functional. As to conditions: time 4 day.
Data set [14] has as its system Mus musculus. The experiment in a line: Inhibition of CCNB1 expression in nude mouse xenografted with human SW1990 cells at 30 mg/kg, ip measured after 4 days by Q-PCR analysis. Type of data set: functional, organism-based. Conditions: time 4.0 day.
The test system of data set [15] is Mus musculus. As to the kind of experiment: Inhibition of CDC25B expression in nude mouse xenografted with human SW1990 cells at 30 mg/kg, ip measured after 4 days by Western blot analysis. In kind it is functional, organism-based. As to conditions: time 4.0 day.
Data set [16] has as its system SW1990. As to the kind of experiment: Inhibition of homologous recombinant repair in human SW1990 cells assessed as reversal of Olaparib-induced FOXM1 expression at 1 to 2 uM after 4 days by Western blot analysis. Type of data set: functional, cell-based. Conditions: dose 1-2 µM, time 4.0 day. A general note: In western blotting, separated proteins are transferred to a membrane and probed.

Data set [17] relates to SW1990. As to the kind of experiment: Inhibition of homologous recombinant repair in human SW1990 cells assessed as reversal of Olaparib-induced TOPBP1 expression at 1 to 2 uM after 4 days by Western blot analysis. Type of data set: functional, cell-based. Conditions: dose 1-2 µM, time 4.0 day.
The test system of data set [18] is Mus musculus. As to the kind of experiment: Inhibition of homologous recombinant repair in nude mouse xenografted with human SW1990 cells assessed as reversal of olaparib-induced FOXM1 expression at 30 mg/kg, ip measured after 4 days by Western blot analysis. As to conditions: time 4.0 day. In kind it is functional, organism-based.
Data set [19] deals with Mus musculus. The experiment in a line: Inhibition of homologous recombinant repair in nude mouse xenografted with human SW1990 cells assessed as reversal of olaparib-induced c-Myc expression at 30 mg/kg, ip measured after 4 days by Western blot analysis. Type of data set: functional, organism-based. Conditions: time 4.0 day.
The subject of data set [20] is Mus musculus. The experiment in a line: Inhibition of homologous recombinant repair in nude mouse xenografted with human SW1990 cells assessed as reversal of olaparib-induced HEXIM1 expression at 30 mg/kg, ip measured after 4 days by Western blot analysis. In kind it is functional, organism-based. As to conditions: time 4.0 day.
Data set [21] concerns SW1990. The experiment in a line: Effect on BRCA2 gene expression in human SW1990 cells at 1 to 2 uM by Q-PCR analysis. In kind it is functional, cell-based. Conditions: dose 1-2 µM.
In data set [22] the test system is SW1990. The experiment in a line: Effect on Rad51 gene expression in human SW1990 cells at 1 to 2 uM by Q-PCR analysis. In kind it is functional, cell-based. Conditions: dose 1-2 µM.
Data set [23] has as its system SW1990. As to the kind of experiment: Effect on FOXO1 gene expression in human SW1990 cells at 1 to 2 uM by Q-PCR analysis. As to conditions: dose 1-2 µM. In kind it is functional, cell-based.
The subject of data set [24] is SW1990. As to the kind of experiment: Effect on ALDH1A1 gene expression in human SW1990 cells at 1 to 2 uM by Q-PCR analysis. In kind it is functional, cell-based. As to conditions: dose 1-2 µM.
Data set [25] deals with SW1990. The experiment in a line: Inhibition of CDK1 protein expression in human SW1990 cells at 1 to 2 uM measured after 4 days by Western blot analysis. Type of data set: functional, cell-based. Conditions: dose 1-2 µM, time 4.0 day.
Data set [26] relates to SW1990. As to the kind of experiment: Inhibition of CDK6 protein expression in human SW1990 cells at 1 to 2 uM measured after 4 days by Western blot analysis. As to conditions: dose 1-2 µM, time 4.0 day. Type of data set: functional, cell-based.
Data set [27] is described as follows: Toxicity in nude mouse xenografted with human SW1990 cells assessed as spleen damage at 45 mg/kg, ip administered for 28 days by H and E staining based fluorescence microscopic analysis. Type of data set: organism-based. As to conditions: in vivo, 672 h, time 28 day.
The test system of data set [28] is SW1990. The experiment in a line: Upregulation of PARP1 expression in human SW1990 cells at 6 uM measured after 4 days by Western blot analysis. Type of data set: functional, cell-based. As to conditions: time 4.0 day.
The test system of data set [29] is SW1990. The experiment in a line: Induction of apoptosis in human SW1990 cells assessed as late apoptotic cells at 6 uM measured after 4 days by Annexin V-FITC and propidium iodide staining based flow cytometry (reference value: 7.23%). In kind it is functional. Conditions: time 4 day.
In data set [30] the test system is Mus musculus. As to the kind of experiment: Upregulation of E2F2 expression in nude mouse xenografted with human SW1990 cells at 45 mg/kg, ip measured after 4 days by Q-PCR analysis. Type of data set: functional, organism-based. As to conditions: time 4.0 day.
Data set [31] relates to Mus musculus. The experiment in a line: Upregulation of CDK6 expression in nude mouse xenografted with human SW1990 cells at 45 mg/kg, ip measured after 4 days by Q-PCR analysis. Type of data set: functional, organism-based. Conditions: time 4.0 day.
Data set [32] has as its system Mus musculus. The experiment in a line: Upregulation of CCND1 expression in nude mouse xenografted with human SW1990 cells at 45 mg/kg, ip measured after 4 days by Q-PCR analysis. Type of data set: functional, organism-based. Conditions: time 4.0 day.
Data set [33] relates to SW1990. The experiment in a line: Effect on FOXO1 gene expression in human SW1990 cells at 6 uM by Q-PCR analysis. Type of data set: functional, cell-based.
Data set [34] concerns SW1990. As to the kind of experiment: Downregulation of Ki67 expression in human SW1990 cells at 45 mg/kg, ip measured after 28 days by immuno histochemical staining based fluorescence microscopic analysis. Type of data set: functional, organism-based. As to conditions: time 28.0 day.
Data set [35] deals with SW1990. As to the kind of experiment: Upregulation of ALDH1A1 expression in human SW1990 cells at 6 uM measured after 4 days by Western blot analysis. In kind it is functional, cell-based. Conditions: time 4.0 day.
Data set [36] relates to SW1990. As to the kind of experiment: Upregulation of BRCA2 expression in human SW1990 cells at 6 uM measured after 4 days by Western blot analysis. Conditions: time 4.0 day. Type of data set: functional, cell-based.
The subject of data set [37] is Mus musculus. As to the kind of experiment: Upregulation of […] expression in nude mouse xenografted with human SW1990 cells at 45 mg/kg, ip measured after 28 days by DAPI staining based laser confocal microscopic analysis. In kind it is functional, organism-based. Conditions: time 28.0 day.

Active and inactive are the calls of the source. The calls are words filed in the database; no cut-off is given here.

Turning to `Cc1sc2c(c1C)C(c1ccc(Cl)cc1)=N[C@@H](CC(=O)OC(C)(C)C)c1nnc(C)n1-2`, the Activity is listed as 1.73% with SW1990 [1], “Non-Toxic” in [2], “Non-Toxic” in [3] and 19.33% with SW1990 [4]. Moreover, the outcome in the data set with SW1990 [5] and in the data set with SW1990 [6] was Active.

In the case of `Cc1noc(C)c1-c1ccc2c(c1)C(c1ccccc1)N(Cc1nc3c(C(N)=O)cccc3[nH]1)C(=O)N2C` (configuration not stated), the Activity entry in [7] was “Non-Toxic”; in data set [8], “Non-Toxic”; with SW1990 [10], 3.02%; in the data set on SW1990 [11], 1.06%; in the data set on SW1990 [12] it was 14.98%; with SW1990 [13] it was 12.83%. In addition, the outcome with SW1990 [9], in the data set with SW1990 [21], in the data set on SW1990 [22], in the data set on SW1990 [23] and in the data set on SW1990 [24] was Active. The inhibition entry in the data set on Mus musculus [14], in the data set on Mus musculus [15], in the data set on SW1990 [16], with SW1990 [17], in the data set with Mus musculus [18] and in the data set on Mus musculus [19] was “Active” throughout. In addition, the inhibition result in the data set on Mus musculus [20], with SW1990 [25] and in the data set with SW1990 [26] was “Active” each time.

With `O=C(c1cc(Cc2n[nH]c(=O)c3ccccc23)ccc1F)N1CCN(C(=O)C2CC2)CC1` [OLAPARIB], the Activity result was “Non-Toxic” in data set [27] and 22.9% with SW1990 [29]. Moreover, the outcome with SW1990 [28], in the data set with Mus musculus [30], in the data set on Mus musculus [31], with Mus musculus [32], with SW1990 [33] and with SW1990 [34] was Active. Also, the outcome with SW1990 [35], in the data set with SW1990 [36] and in the data set on Mus musculus [37] was Active.

Values taken from ChEMBL document CHEMBL5131471, “Design, synthesis and mechanism studies of novel dual PARP1/BRD4 inhibitors against pancreatic cancer” (Eur J Med Chem, 2022).
